Experimental data as given in paper PMC12356538, “Targeting the SARS-CoV‑2 RNA Translation Initiation Element SL1 by Molecules of Low Molecular Weight” (Journal of the American Chemical Society, 2025).
Like-named read-outs stand apart in the source and are kept apart here.

How the values were obtained:
[1] = test system: SARS-CoV-2 SL1 RNA (SL1 wt); assay type: binding; conditions: for wLOGSY factor / T2 reduction [%] / CSP [Hz]: 10 μM SL1 wt, 200 μM ligand; for wLOGSY factor / T2 reduction [%]: pH 6.2; for T2 reduction [%]: CPMG 100 vs 5 ms; for Rank: FBS ranking from summed ranks of CSP, wLOGSY and T2 results; for CSP [Hz]: ligand 1H CSP, [RNA]:[ligand] 1:20, pH 6.2; for FBS binding to SL1, in words: ligand-detected NMR
SL1 Δbulge RNA = assay type: binding, SARS-CoV-2
SL1 wt RNA = experiment: NMR-based KD estimation, ligand-detected 1D-1H titration; assay type: binding, SARS-CoV-2; conditions: Suppl. Table 7; for Kd: read-out: KDest
[2] = ligand constant at 100, SL1 wt RNA concentration 0-200
[3] = ligand constant at 100, SL1 wt RNA concentration 0-250

Compound | wLOGSY factor [1] | T2 reduction [%] [1] | Rank ([1]; SL1 wt) | CSP [Hz] [1] | FBS binding to SL1, in words ([1]; SL1 wt) | FBS result (CSP, wLOGSY, T2 reduction) in words (SL1 Δbulge RNA) | Kd (SL1 wt RNA; [2]) | CSP [Hz] (SL1 Δbulge RNA) | Rank (SL1 Δbulge RNA) | T2 reduction [%] (SL1 Δbulge RNA) | wLOGSY factor (SL1 Δbulge RNA) | scoring in the FBS ranking compared with lead A ([1]; SL1 wt) | Kd (SL1 wt RNA; [3]) | CSP values relative to A.2 ([1]; ligand CSP, SL1 wt) | KDest (SL1 wt RNA; [2])
COc1ccc2nc(NC(=O)CN3CCC[C@@H](N)C3)sc2c1 [A.37] | 1.01 | 100.00% | 3 | 24.72 Hz | positive effect on SL1 binding | no effects | 171 µM |  |  |  |  |  |  |  | 
COc1ccc2nc(NC(=O)CN3CCN(C)CC3)sc2c1 [A.18] | 0.80 | 91.00% | 12 | 22.14 Hz | positive effect on SL1 binding | no effects |  |  |  |  |  |  |  |  | 
COc1cc(OC)c2nc(NC(=O)CN3CCC[C@H](N)C3)sc2c1 [A.54] | 0.00 | 100.00% | 4 | 34.62 Hz |  |  | 109 µM | 3.60 Hz | 5 | 88.68% | 0.00 |  |  |  | 
COc1ccc2nc(NC(=O)CN3CCC[C@H](NCCN(C)c4cccc(O)c4)C3)sc2c1 [A.48] | 0.00 | 74.30% | 32 | 17.28 Hz |  |  | 304 µM | 2.16 Hz | 9 | 0.59% | 10.82 |  |  |  | 
COc1ccc(-c2nnc(NC(=O)CN3CCC[C@H](N)C3)s2)cc1OC [A.58] | 0.00 | 96.61% | 10 | 39.18 Hz |  |  | 77.5 µM | 9.24 Hz | 2 | 73.56% | 0.00 | ~4 fold |  |  | 
COc1ccc2nc(NC(=O)CN3CCC[C@H](NCc4cccc(O)c4)C3)sc2c1 [A.52] | 0.00 | 83.78% | 29 | 20.01 Hz |  | no effects |  |  |  |  |  |  |  |  | 
COc1ccc(-c2nnc(NC(=O)CN3CCC[C@@H](N)C3)s2)cc1OC [A.59] | 0.00 | 98.00% | 10 | 38.70 Hz |  |  | 90.7 µM | 9.18 Hz | 4 | 65.47% | 0.00 | ~4 fold |  |  | 
CN(C)CC(=O)Nc1nnc(-c2ccc([N+](=O)[O-])cc2)s1 [A.42] | 0.90 | 86.63% | 24 | 12.36 Hz |  | no effects |  |  |  |  |  |  |  |  | 
COc1ccc2nc(NC(=O)CN3CCN(C)CC3)[nH]c2c1 [A.40] | 0.68 | 41.23% | 37 | 9.48 Hz | reduced activity | no effects |  |  |  |  |  |  |  |  | 
CC(C)(C)C(=O)Nc1nc2ccc(Br)cc2s1 [A.8] |  |  |  |  | only minor effects | no effects |  |  |  |  |  |  | 254 µM |  | 
COc1ccc2nc(NC(=O)CN(C)C)[nH]c2c1 [A.20] | 0.62 | 87.00% | 15 | 25.08 Hz | higher score than that of A.2 | no effects |  |  |  |  |  |  |  |  | 
COc1ccc2nc(NC(=O)CN3CCNCC3)sc2c1 [A.45] | 1.54 | 86.71% | 7 | 24.81 Hz | positive effect on SL1 binding |  | 162 µM | 7.08 Hz | 7 | 60.81% | 0.00 |  |  |  | 
COc1ccc2nc(NC(=O)CN(C)C)sc2n1 [A.38] | 1.22 | 73.62% | 23 | 16.14 Hz | did not show any improvement | no effects |  |  |  |  |  |  |  |  | 
CNC(=N)Nc1nc2ccc(O)cc2s1 [A.9] | 0.66 | 72.21% | 39 | 3.67 Hz |  | no effects |  |  |  |  |  |  | 436 µM |  | 
COc1cc(OC)c2nc(NC(=O)CN3CCNCC3)sc2c1 [A.57] | 0.00 | 100.00% | 6 | 32.79 Hz |  |  | 83.7 µM | 4.92 Hz | 8 | 47.32% | 1.07 |  |  |  | 
CN(C)CC(=O)Nc1nnc(-c2cc(F)c(Cl)c([N+](=O)[O-])c2Cl)s1 [A.43] | 0.00 | 91.98% | 31 | 8.40 Hz |  | no effects |  |  |  |  |  |  |  |  | 
CCN(CCN[C@H]1CCCN(CC(=O)Nc2nc3ccc(OC)cc3s2)C1)c1cccc(O)c1 [A.49] | 0.00 | 72.85% | 34 | 15.15 Hz |  | no effects | 530 µM |  |  |  |  |  |  |  | 
COc1cc(OC)c2nc(NC(=O)CN3CCC[C@@H](N)C3)sc2c1 [A.55] | 0.00 | 100.00% | 5 | 34.05 Hz |  | no effects | 81.1 µM |  |  |  |  |  |  |  | 
COc1cc(OC)c2nc(NC(=O)CN(C)C)sc2c1 [A.15] | 2.66 | 36.00% | 16 | 31.92 Hz |  |  | 108 µM | 9.18 Hz | 2 | 84.62% | 0.47 |  |  | 2–3 times | 
CN(C)CC(=O)Nc1nc2ccc(N)cc2s1 [A.24] | 0.49 | 69.42% | 35 | 11.40 Hz | among the weakest binders | no effects |  |  |  |  |  |  |  |  | 
COc1ccc2nc(NC(=O)CN3CCC[C@@H](NCc4cccc(O)c4)C3)sc2c1 [A.53] | 0.00 | 85.86% | 28 | 21.03 Hz |  | no effects |  |  |  |  |  |  |  |  | 
COc1cc(OC)c2nc(NC(=O)CN3CCN(C)CC3)sc2c1 [A.56] | 0.00 | 100.00% | 7 | 31.95 Hz |  | no effects | 75.3 µM |  |  |  |  |  |  |  | 
COc1ccc2nc(NC(=O)CN3CCC[C@@H](NCCN(C)c4cccc(O)c4)C3)sc2c1 [A.50] | 0.00 | 72.85% | 33 | 15.17 Hz |  | no effects |  |  |  |  |  |  |  |  | ambiguous
CSc1ccc2nc(NC(=O)CN(C)C)sc2c1 [A.19] | 0.46 | 87.00% | 18 | 25.08 Hz |  | no effects |  |  |  |  |  |  |  |  | 
COc1ncc2nc(NC(=O)CN(C)C)sc2n1 [A.47] |  |  |  |  | did not show any improvement | no effects |  |  |  |  |  |  |  |  | 
